These are literature values, as cited in PMC6429159, “Evolution and Biological Evaluation of Matrinic Derivatives with Amantadine Fragments As New Anti-Influenza Virus Agents” (Molecules, 2019).

Molecules are shown by their SMILES.

For this series, the system named is influenza virus A/hanfang/359/95 (H3N2). Also noted: method as in PMID 29473520. The settings on record: lead 1, value of previous study; read-out: Anti-H3N2 IC50; cited from earlier work.

Consider `CCCCC1C2CCCN3CCCC(CN1Cc1ccc(C(=O)O)cc1)C23` (stereo not shown) [Compound 1, 12N-p-carboxybenzyl matrinic butane], for which the half-inhibitory concentration (IC50) is 16.2 µM.

For orientation: IC50 means the concentration that gives 50% inhibition.
